The values below come from patent US11001590B2, “Pyrazolopyrimidine derivatives” (BAYER ANIMAL HEALTH GMBH, priority 2016, dated 2021).

As a reminder, the chromatographic logP is lipophilicity estimated from chromatographic retention. Usually EC50 stands for the concentration giving half of the maximal effect.

Some results are limits rather than exact numbers.

Series [1] can be described thus: log P by HPLC on reversed phase columns (Method L0; [a] acidic, [b] neutral range).
Description: Calibration was done with straight-chain alkan-2-ones (with 3 to 16 carbon atoms) with known log P values (measurement of log P values using retention times with linear interpolation between successive alkanones). Lambda-max-values were determined using UV-spectra from 200 nm to 400 nm and the peak values of the chromatographic signals.
For series [2], the system named is Dirofilaria immitis microfilariae. Briefly: In vitro assay 3: Dirofilaria immitis microfilariae (DIROIM L1), motility. The note with it: 72 h, reduction of motility vs negative control, 72 h incubation.
The test system of series [3] is Dirofilaria immitis third-stage larvae. Nature of the series: In vitro assay 4: Dirofilaria immitis (DIROIM L4), motility of larvae. The note with it: 72 h.
The next series concerns the target C. elegans Slo-1a (Caenorhabditis elegans, UniProt Q95V25). Nature of the series: In vitro assay 1: C. elegans Slo-1a, action at a recombinant C. elegans CHO cell line (membrane potential measurement).

Sequence of C. elegans Slo-1a (Q95V25 whole entry): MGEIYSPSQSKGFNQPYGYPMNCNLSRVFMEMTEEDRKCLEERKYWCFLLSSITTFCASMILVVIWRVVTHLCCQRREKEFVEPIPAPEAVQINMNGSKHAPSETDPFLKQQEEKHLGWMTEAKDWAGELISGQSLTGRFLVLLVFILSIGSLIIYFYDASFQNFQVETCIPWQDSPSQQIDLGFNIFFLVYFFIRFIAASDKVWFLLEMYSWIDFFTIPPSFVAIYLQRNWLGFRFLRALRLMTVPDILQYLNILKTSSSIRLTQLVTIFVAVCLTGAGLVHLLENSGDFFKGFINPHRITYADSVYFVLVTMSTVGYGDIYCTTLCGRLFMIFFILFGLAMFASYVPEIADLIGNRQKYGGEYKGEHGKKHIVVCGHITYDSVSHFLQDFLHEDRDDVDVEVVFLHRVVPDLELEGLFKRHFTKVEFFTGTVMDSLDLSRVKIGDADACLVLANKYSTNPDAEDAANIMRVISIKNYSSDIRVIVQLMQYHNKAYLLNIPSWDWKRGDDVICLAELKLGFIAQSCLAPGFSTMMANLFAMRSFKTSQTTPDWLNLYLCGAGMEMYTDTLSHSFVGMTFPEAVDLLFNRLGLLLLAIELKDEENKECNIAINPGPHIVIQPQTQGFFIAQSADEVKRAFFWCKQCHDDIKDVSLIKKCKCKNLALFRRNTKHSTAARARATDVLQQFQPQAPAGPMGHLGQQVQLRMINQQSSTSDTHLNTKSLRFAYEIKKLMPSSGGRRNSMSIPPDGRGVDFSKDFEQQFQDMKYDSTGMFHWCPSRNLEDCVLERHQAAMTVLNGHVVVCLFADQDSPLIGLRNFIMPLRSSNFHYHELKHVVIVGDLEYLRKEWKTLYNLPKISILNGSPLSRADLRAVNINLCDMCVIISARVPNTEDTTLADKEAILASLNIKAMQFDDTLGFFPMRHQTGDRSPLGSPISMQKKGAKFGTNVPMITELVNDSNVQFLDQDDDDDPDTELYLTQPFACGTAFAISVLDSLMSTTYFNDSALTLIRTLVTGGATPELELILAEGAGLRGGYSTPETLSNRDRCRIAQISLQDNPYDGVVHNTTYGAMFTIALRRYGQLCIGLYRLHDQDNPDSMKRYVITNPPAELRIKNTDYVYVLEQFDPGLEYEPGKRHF
Description for C. elegans Slo-1a: In Vitro Assay 1: C. Eleqans Slo-La—Action at a Recombinant C. elegans Cell Line
Cells were cultured at 37° C. and 5% CO2 in MEMalpha with Gutamax I (Invitrogen, Nr.: 32571), supplemented with 10% (v/v) heat inactivated fetal bovine serum (Invitrogen, Nr.: 10500), G418 (1 mg/ml, Invitrogen, Nr.: 10131). Cells were detached using Accutase (Sigma, Nr.: A6964).
Membrane Potential Measurements
Laboratory compound testing was performed on 384-well microtiter plates (MTPs, Greiner, Nr.: 781092). 8000 cells/well were plated onto 384-well MTPs and cultured for 20 to 24 hours at 37° C. and 5% CO2. After removal of the cell culture medium, the cells were washed once with tyrode (150 mM NaCl, 0.3 mM KCl, 2 mM CaCl2, 1 mM MgCl2, 0.8 mM NaH2PO4, 5 mM Glucose, 28 mM Hepes, pH 7.4) and then loaded with the voltage sensitive dye of the Membrane Potential Assay Kit diluted in tyrode for 1 h at room temperature.
After starting the measurement of fluorescence using a FLIPR Tetra (Molecular Devices, Exc. 510-545 nm, Emm. 565-625 nm), test compounds were added followed by the addition of KCl tyrode (final assay concentration: 70 mM KCl, 2 mM CaCl2, 1 mM MgCl2, 0.8 mM NaH2PO4, 5 mM Glucose, 28 mM Hepes, pH 7.4, including the voltage sensitive dye). The measurement was completed after 7 minutes.

`Cc1nn2c(C3CC3)c(C(=O)N[C@H]3CCc4ccccc43)cnc2c1-c1cccc(N(C)C)c1` [Example 348]: in series [1], the chromatographic logP worked out at 2.98. Further, the EC50 in series [2] was less than 1 µg/mL; in series [3], less than 1 µg/mL; on C. elegans Slo-1a, 3.98 nM.
In series [1], `COCc1cccc(-c2c(C)nn3c(C(C)C)c(C(=O)N[C@H]4CCCc5ccccc54)cnc23)c1` [Example 344] gave a chromatographic logP of 4.74. The figures for the concentration giving a half-maximal response (EC50) (in series [2]; in series [3]; on C. elegans Slo-1a) were less than 1 µg/mL, less than 1 µg/mL and 7.94 nM, respectively.
On to `CC(C)c1c(C(=O)N[C@H]2CCc3ccccc32)cnc2c(-c3c(F)cccc3F)c(C(F)F)nn12` [Example 434], for which the chromatographic logP in series [1] worked out at 4.23. Besides, the EC50 is less than 0.1 µg/mL in series [2], less than 0.1 µg/mL in series [3] and 7.94 nM on C. elegans Slo-1a.
As to `CC(C)c1c(C(=O)N[C@H]2CCc3ccccc32)cnc2c(-c3cccc(OC(F)(F)F)c3)c(C(F)F)nn12` [Example 431], the chromatographic logP in series [1] is 5.18. Further, the EC50 in series [2] was less than 10 µg/mL; at C. elegans Slo-1a, 6.31 nM.
In turn, `CC(C)c1c(C(=O)N[C@H]2CCc3ccccc32)cnc2c(-c3cc(Cl)cc(Cl)c3)c(S(C)(=O)=O)nn12` [Example 229] gave a chromatographic logP in series [1] of 4.35. Besides, the figures for the EC50 (in series [2]; at C. elegans Slo-1a) were less than 1 µg/mL and 63.1 nM, respectively.
For `Cc1c(C(=O)N[C@H]2CCc3ccccc32)cnc2c(-c3ccccc3Cl)c(Cl)nn12` [Example 74], the chromatographic logP in series [1] was determined as 3.99. Moreover, the 50% effective concentration (EC50) in series [2] was less than 1 µg/mL; at C. elegans Slo-1a, 39.8 nM.
On to `CC(=O)Nc1cc(-c2c(C)nn3c(C4CC4)c(C(=O)N[C@H]4CCOc5ccccc54)cnc23)ccn1` [Example 528], for which the chromatographic logP in series [1] was determined as 1.69. In addition, the EC50 in series [2] is less than 10 µg/mL; at C. elegans Slo-1a, 1260 nM.
In turn, `Cc1ccccc1-c1c(C)nn2c(N3CCOCC3)c(C(=O)N[C@H]3CCOc4ccccc43)cnc12` [Example 536] yielded a chromatographic logP in series [1] of 4.18. Moreover, the concentration for a half-maximal effect (EC50) in series [2] is less than 0.1 µg/mL; at C. elegans Slo-1a, 5.01 nM.
The compound `Cc1nn2c(C3CC3)c(C(=O)N[C@H]3CCc4ccccc43)cnc2c1-c1cccc(OC(F)F)c1` [Example 417] yielded a chromatographic logP in series [1] of 4.01. The 50% effective concentration (EC50) in series [2] was less than 0.1 µg/mL; at C. elegans Slo-1a, 7.94 nM.
For the compound `Cc1nn2c(C(C)C)c(C(=O)N[C@H]3CCOc4ccccc43)cnc2c1-c1cccc(OC(F)(F)F)c1` [Example 394], the chromatographic logP in series [1] was determined as 5.19. Also, the EC50 in series [2] is less than 0.1 µg/mL; at C. elegans Slo-1a, 15.8 nM.
As to `CSc1nn2c(C(C)C)c(C(=O)N[C@H]3CCc4ccccc43)cnc2c1-c1cc(Cl)cc(Cl)c1` [Example 203], in series [1], the chromatographic logP was found to be 6.67. In addition, the EC50 is less than 10 µg/mL in series [2] and 200 nM on C. elegans Slo-1a.
In series [1], `Cc1nn2c(C(C)C)c(C(=O)N[C@H]3CCOc4ccccc43)cnc2c1-c1ccc2c(c1)OC(F)(F)O2` [Example 251] displayed a chromatographic logP of 5.03. Moreover, the values for the EC50 (in series [2]; at C. elegans Slo-1a) were less than 0.1 µg/mL and 3.16 nM, respectively.
For `Cc1nn2c(C(C)C)c(C(=O)N[C@H]3CCOc4ccccc43)cnc2c1-c1ccc(F)cc1Cl` [Example 218] the same measures were 4.51, less than 0.1 µg/mL and 1.58 nM.
In series [1], `Cc1nn2c(C(C)C)c(C(=O)N[C@H]3CCc4ccccc43)cnc2c1-c1cccc(OCC2CC2)c1` [Example 319] registered a chromatographic logP of 5.28. The results for the EC50 (in series [2]; at C. elegans Slo-1a) were less than 1 µg/mL and 25.1 nM, respectively.
For the compound `Cc1nn2c(C(C)C)c(C(=O)N[C@H]3CCOc4ccccc43)cnc2c1-c1ccc2c(c1)OCO2` [Example 239], in series [1], the chromatographic logP is 4.08. Further, the values for the EC50 (in series [2]; on C. elegans Slo-1a) were less than 10 µg/mL and 31.6 nM, respectively.
`Cc1nn2c(C(C)C)c(C(=O)N[C@H]3CCCc4ccccc43)cnc2c1-c1ccccc1F` [Example 94] displayed a chromatographic logP in series [1] of 4.72. In addition, the EC50 in series [2] is less than 0.1 µg/mL; at C. elegans Slo-1a it was 15.8 nM.
For `Cc1c(C(=O)N[C@H]2CCCc3ccccc32)cnc2c(-c3ccccc3Cl)c(Cl)nn12` [Example 77] the same measures were 4.26, less than 10 µg/mL and 63.1 nM.
For `Cc1nn2c(C3CC3)c(C(=O)N[C@H]3CCc4ccccc43)cnc2c1-c1cnn(CC2CC2)c1` [Example 446] the same measures were 3.15, less than 10 µg/mL and 12.6 nM.
Compound `Cc1nn2c(CC(C)C)c(C(=O)N[C@H]3CCc4ccccc43)cnc2c1-c1c(F)cccc1Cl` [Example 224] displayed a chromatographic logP in series [1] of 4.82. Further, the figures for the concentration giving a half-maximal response (EC50) (in series [2]; on C. elegans Slo-1a) were less than 1 µg/mL and 31.6 nM, respectively.
In the case of `Cc1nn2c(CC(C)C)c(C(=O)N[C@H]3CCOc4ccccc43)cnc2c1-c1c(F)cccc1Cl` [Example 225], in series [1], the chromatographic logP was determined as 4.56. The values for the EC50 (in series [2]; on C. elegans Slo-1a) were less than 0.1 µg/mL and 12.6 nM, respectively.
The compound `COCCn1cc(-c2c(C)nn3c(C(C)C)c(C(=O)N[C@H]4CCc5ccccc54)cnc23)cn1` [Example 375] had a chromatographic logP in series [1] of 3.26. The half-maximal effective concentration (EC50) in series [2] is less than 10 µg/mL; on C. elegans Slo-1a, 200 nM.
`CC(C)c1c(C(=O)N[C@H]2CCc3ccccc32)cnc2c(-c3cccc(N(C)C)c3)c(C(F)F)nn12` [Example 427] showed a chromatographic logP in series [1] of 4.3. The half-maximal effective concentration (EC50) in series [2] is less than 10 µg/mL; at C. elegans Slo-1a, 20 nM.
The compound `COc1cccc(-c2c(C)nn3c(C4CC4)c(C(=O)N[C@H]4CCCc5ccccc54)cnc23)c1` [Example 439] showed a chromatographic logP in series [1] of 4.03. The values for the EC50 (in series [2]; at C. elegans Slo-1a) were less than 0.1 µg/mL and 6.31 nM, respectively.
`Cc1nn2c(C(C)C)c(C(=O)N[C@H]3CCCc4ccccc43)cnc2c1-c1cnn(CC2CC2)c1` [Example 420] yielded a chromatographic logP in series [1] of 4.13. Besides, the concentration for a half-maximal effect (EC50) in series [2] is less than 10 µg/mL; on C. elegans Slo-1a, 7.94 nM.
`CC(=O)Nc1cccc(-c2c(C)nn3c(C(C)C)c(C(=O)N[C@H]4CCc5ccccc54)cnc23)c1` [Example 298] yielded a chromatographic logP in series [1] of 3.3. Also, the concentration for a half-maximal effect (EC50) was less than 10 µg/mL in series [2] and 1260 nM on C. elegans Slo-1a.
Regarding `COc1cc(Cl)cc(-c2c(C)nn3c(C(C)C)c(C(=O)N[C@H]4CCCc5ccccc54)cnc23)c1` [Example 378], in series [1], the chromatographic logP was 5.55. Also, the EC50 in series [2] was less than 1 µg/mL; on C. elegans Slo-1a, 50.1 nM.
The compound `COc1cccc(-c2c(C)nn3c(C(C)C)c(C(=O)N[C@H]4CCOc5ccccc54)cnc23)c1Cl` [Example 247] returned a chromatographic logP in series [1] of 4.19. Moreover, the EC50 in series [2] was less than 1 µg/mL; at C. elegans Slo-1a it was 10 nM.
`Cc1nn2c(C(C)C)c(C(=O)N[C@H]3CCc4ccccc43)cnc2c1-c1ccc(N(C)C)cc1` [Example 342] returned a chromatographic logP in series [1] of 3.91. The EC50 is less than 10 µg/mL in series [2] and 200 nM at C. elegans Slo-1a.
As for `CC(C)c1c(C(=O)N[C@H]2CCOc3ccccc32)cnc2c(-c3cccc(OC(F)(F)F)c3)c(C(F)(F)F)nn12` [Example 137], in series [1], the chromatographic logP came to 5.31. Also, the half-maximal effective concentration (EC50) in series [2] is less than 10 µg/mL; at C. elegans Slo-1a, 25.1 nM.
In series [1], `Cc1nn2c(C(C)C)c(C(=O)N[C@H]3CCCc4ccccc43)cnc2c1-c1cccc(OC(F)(F)F)c1` [Example 345] showed a chromatographic logP of 5.82. Further, the results for the EC50 (in series [2]; at C. elegans Slo-1a) were less than 1 µg/mL and 12.6 nM, respectively.
Regarding `Cc1nn2c(C(C)C)c(C(=O)N[C@H]3CCc4ccccc43)cnc2c1-c1cccc(OC(F)(F)F)c1` [Example 309], the chromatographic logP in series [1] was 5.48. Moreover, the figures for the concentration for a half-maximal effect (EC50) (in series [2]; at C. elegans Slo-1a) were less than 10 µg/mL and 31.6 nM, respectively.
On to `Cc1nn2c(C(C)C)c(C(=O)N[C@H]3CCc4ccccc43)cnc2c1-c1cccc(F)n1` [Example 178], for which the chromatographic logP in series [1] worked out at 4.6. The concentration giving a half-maximal response (EC50) is less than 10 µg/mL in series [2] and 794 nM on C. elegans Slo-1a.
Consider `Cc1nn2c(C3CC3)c(C(=O)N[C@H]3CCOc4ccccc43)cnc2c1-c1ccnc(N2CCOCC2)c1F` [Example 527], for which the chromatographic logP in series [1] came to 2.96. The figures for the concentration for a half-maximal effect (EC50) (in series [2]; on C. elegans Slo-1a) were less than 10 µg/mL and 31.6 nM, respectively.
The compound `CCN(CC)Cc1cccc(-c2c(C)nn3c(C(C)C)c(C(=O)N[C@H]4CCc5ccccc54)cnc23)c1` [Example 355] showed a chromatographic logP in series [1] of 2.12. Besides, the EC50 in series [2] was less than 10 µg/mL; at C. elegans Slo-1a, 2510 nM.
For `Cc1nn2c(C(C)C)c(C(=O)N[C@H]3CCc4ccccc43)cnc2c1-c1cccc(CN2CCCC2)c1` [Example 365], in series [1], the chromatographic logP was determined as 2.08. In addition, the EC50 is less than 10 µg/mL in series [2] and 3160 nM on C. elegans Slo-1a.
In series [1], `COc1cccc(-c2c(C)nn3c(C(C)C)c(C(=O)N[C@H]4CCc5ccccc54)cnc23)n1` [Example 177, (S)—N-(2,3-Dihydro-1H-inden-1-yl)-7-isopropyl-3-(6-methoxypyridin-2-yl)-2-methylpyrazolo[1,5-a]pyrimidine-6-carboxamide] registered a chromatographic logP of 4.89. In addition, the concentration for a half-maximal effect (EC50) in series [2] is less than 10 µg/mL; on C. elegans Slo-1a, 158 nM.
In the case of `Cc1nn2c(C(C)C)c(C(=O)N[C@H]3CCOc4ccccc43)cnc2c1-c1cc(F)c(F)c(F)c1` [Example 185], the chromatographic logP in series [1] came out at 4.97. For the same compound, the half-maximal effective concentration (EC50) in series [2] was less than 1 µg/mL; on C. elegans Slo-1a it was 12.6 nM.
On to `Cc1nn2c(C(C)C)c(C(=O)N[C@H]3CCCc4ccccc43)cnc2c1-c1cccc(N(C)C)c1` [Example 361], for which the chromatographic logP in series [1] is 4.32. In addition, the EC50 in series [2] is less than 1 µg/mL; at C. elegans Slo-1a, 15.8 nM.
For `Cc1nn2c(C(C)C)c(C(=O)N[C@H]3CCOc4ccccc43)cnc2c1-c1ccc(Cl)cc1Cl` [Example 180] the same measures were 5.02, less than 0.1 µg/mL and 7.94 nM.
Take `CC(C)c1c(C(=O)N[C@H]2CCOc3ccccc32)cnc2c(-c3c(F)cc(F)cc3F)c(C(F)(F)F)nn12` [Example 140]: the chromatographic logP in series [1] was 4.77. In addition, the figures for the EC50 (in series [2]; on C. elegans Slo-1a) were less than 0.1 µg/mL and 79.4 nM, respectively.
